From publication PMC12696353, “Structural insights into endogenous agonist selectivity of aminergic receptors from the octopamine β2 receptor” (PNAS Nexus, 2025) come the findings set out here.

Positions count from the first letter of the chain named. Entries after “also recorded” stand apart in the source; their conditions may differ. Where two headings read alike, the source gives them in different places.

Assay [1] concerns the target I. scapularis octβ2R (is-octβ2R) (Ixodes scapularis, UniProt A0ACM8E5E8). The assay is described as follows: cell-based. The class given is cell-based. As to conditions: for potency (EC50) relative to the other TDAs: order octopamine > tyramine > noradrenaline > dopamine. As for the experimental part:
(§1) The TGFα shedding assay was performed as previously described ([28]). […] The cells were transfected using lipofectamine 2000 with plasmids encoding alkaline phosphatase–tagged TGFα (AP-TGFα) (2.5 ng/mL), is-octβ2Rs (1 ng/mL), and Gαq/s (0.5 ng/mL). After 24 h, the cells were washed with phosphate-buffered saline and resuspended in Hank's balanced salt solution (HBSS) (supplemented with 5 mM HEPES [pH 7.4]). The cells (90 μL/well) were plated in a 96-well plate and incubated with 10 μL of HBSS solution containing various concentrations of compounds for 1 h at 37 °C. Following centrifugation (200 × g, 2 min), 80 μL of the supernatant was transferred to a separate 96-well plate. Subsequently, 80 µL of 2× para-nitrophenyl phosphate (pNPP) buffer (containing 10 mM pNPP in 40 mM Tris–HCl [pH 9.5], 40 mM NaCl, and 10 mM MgCl2) was added to both the supernatant and cell-containing plates. The optical density at 405 nm of both plates was measured before and after a 1 h incubation at room temperature using a microplate reader (SpectraMax iD3, Molecular Devices, San Jose, CA, United States). AP-TGFα release was calculated using the following formulas:
(§2) ΔOD405=OD450(1h)−OD405(0h)AP−TGFαinsupernatant(%)=(ΔOD405Sup/[ΔOD450Sup+ΔOD405Cell])×125AP−TGFαrelease(%)=AP−TGFαinsupernatantunderastimulatedcondition(%)−AP−TGFαinsupernatantunderavehicle−treatedcondition
(§3) where OD405 (0 h) and […] represent the OD405 before and after a 1 h incubation, respectively, and OD405Sup and OD405Cell represent the OD405 of supernatant and cell plates, respectively. For all pharmacological analyses, nonlinear regression curve fitting was performed with a 3-parameter sigmoid model (Hill coefficient = 1) using Prism 8 (GraphPad Software, La Jolla, CA, United States).

For assay [2], the target named is T1, is-octβ2R T60^1.41P mutant (Ixodes scapularis, UniProt A0ACM8E5E8).
T1 sequence (A0ACM8E5E8 1-384 T39P): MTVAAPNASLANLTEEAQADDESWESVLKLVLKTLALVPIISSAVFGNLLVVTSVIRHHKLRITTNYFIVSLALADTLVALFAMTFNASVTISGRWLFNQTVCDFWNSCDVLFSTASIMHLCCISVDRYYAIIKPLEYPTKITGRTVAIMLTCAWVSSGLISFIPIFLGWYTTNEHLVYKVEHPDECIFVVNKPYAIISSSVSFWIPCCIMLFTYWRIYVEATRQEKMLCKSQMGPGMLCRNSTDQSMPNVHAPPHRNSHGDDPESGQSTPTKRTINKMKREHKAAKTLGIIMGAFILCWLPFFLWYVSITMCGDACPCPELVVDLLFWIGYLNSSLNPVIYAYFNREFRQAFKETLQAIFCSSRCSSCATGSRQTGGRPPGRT
The assay is described as follows: TGFα shedding assay, amitraz-resistant mutant T60^1.41P. The format is cell-based. As to conditions: Table S4. The procedure:
as §1, §2, §3

Assay [3] concerns the target T2, is-octβ2R I61^1.42F mutant (Ixodes scapularis, UniProt A0ACM8E5E8, I40F).
T2 sequence (A0ACM8E5E8 1-384 I40F): T1 sequence (A0ACM8E5E8 1-384 T39P) with P39T, I40F
The assay is described as follows: TGFα shedding assay, amitraz-resistant mutant I61^1.42F. The format is cell-based. As to conditions: Table S4. The procedure:
as §1, §2, §3

The target in assay [4] is T3, is-octβ2R I62^1.43T mutant (Ixodes scapularis, UniProt A0ACM8E5E8, I41T).
T3 sequence (A0ACM8E5E8 1-384 I41T): T1 sequence (A0ACM8E5E8 1-384 T39P) with P39T, I41T
The assay is described as follows: TGFα shedding assay, amitraz-resistant mutant I62^1.43T. The class given is cell-based. The settings on record: Table S4. The procedure: as §1, §2, §3

For assay [5], the target named is T4, is-octβ2R Y67^2.41S mutant (Ixodes scapularis, UniProt A0ACM8E5E8, Y67S).
T4 sequence (A0ACM8E5E8 1-384 Y67S): T1 sequence (A0ACM8E5E8 1-384 T39P) with P39T, Y67S
The assay is described as follows: TGFα shedding assay, amitraz-resistant mutant Y67^2.41S. The class given is cell-based. The settings on record: Table S4. The procedure:
as §1, §2, §3

Assay [6] has as its target T5, is-octβ2R N87^2.61S mutant (Ixodes scapularis, UniProt A0ACM8E5E8, N87S).
T5 sequence (A0ACM8E5E8 1-384 N87S): T1 sequence (A0ACM8E5E8 1-384 T39P) with P39T, N87S
The assay is described as follows: TGFα shedding assay, amitraz-resistant mutant N87^2.61S. The format is cell-based. As to conditions: Table S4. The procedure: as §1, §2, §3

Assay [7] has as its target T6, is-octβ2R Y215^5.58H mutant (Ixodes scapularis, UniProt A0ACM8E5E8, Y215H).
T6 sequence (A0ACM8E5E8 1-384 Y215H): T1 sequence (A0ACM8E5E8 1-384 T39P) with P39T, Y215H
The assay can be described thus: TGFα shedding assay, amitraz-resistant mutant Y215^5.58H. The format is cell-based. The procedure: as §1, §2, §3

In assay [8] the test system is is-octβ2R Y215^5.58H mutant. The description is as above. The class given is cell-based, Ixodes scapularis. The settings on record: versus wild type. The procedure: as §1, §2, §3
Setting [9] is: Table S2, wild type, HEK293 cells, mean ± SEM, n = 3.
Setting [10] is: HEK293, 1 h, Table S2, wild type, AP-TGFα release, HEK293 cells, mean ± SEM, n = 3.
[11] abbreviates: logEC50, Table S2, wild type, HEK293 cells, mean ± SEM, n = 3.

As for `NCCc1ccc(O)c(O)c1` [Dopamine, dopamine], the logEC50 result in assay [1] (setting [9]) is “signal observed only at 10-5 M”. In addition, the “potency (EC50) relative to the other TDAs” value in assay [1] (wild type) is “significantly weaker affinities; also recorded: lowest potency”.
One may read the Emax as the size of the effect at its maximum, as opposed to the concentration needed. A word on the EC50: it is the concentration at which the effect is half-maximal. Read a low EC50 as higher potency in that assay. As for `Cc1ccc(/N=C/N(C)/C=N/c2ccc(C)cc2C)c(C)c1` [Amitraz], the Emax is 17 ± 1% in assay [1] (1 h, Table S4, WT, AP-TGFα release) and 26 ± 0.9% in assay [1] (setting [10]). Besides, the EC50 in assay [1] (LogEC50, Table S4, WT) is 31.6 nM; in assay [1] (setting [11]), 126 nM; in assay [2], 31.6 nM; in assay [3], 63.1 nM; in assay [4], 15.8 nM; in assay [5] it was 63.1 nM. Also, the figures for the concentration for a half-maximal effect (EC50) in assay [6] and in assay [7] were 50.1 nM and 63.1 nM, respectively. In addition, in assay [8], the “reduction of maximal response (Emax) by the Y215^5.58H mutation” value is given as around 50%.
The compound `CNC[C@H](O)c1ccc(O)c(O)c1` [Adrenaline, adrenaline] gave an EC50 in assay [1] of 3160 nM. Besides, in assay [1] (HEK293, 1 h), the Emax worked out at 20 ± 2.1%.
With `Cc1ccc(NC=O)c(C)c1` [DMF, N-(2,4-dimethylphenyl)formamide], in assay [1] (setting [9]), the logEC50 entry was “no activity”. Further, the agonistic activity result in assay [1] (wild type) is given as “no agonistic activity”.
Compound `NCCc1ccc(O)cc1` [Tyramine, tyramine] gave a concentration for a half-maximal effect (EC50) in assay [1] of 1580 nM. In assay [1] (HEK293, 1 h), the Emax stood at 25 ± 1.7%. Also, in assay [1] (wild type), the “potency (EC50) relative to the other TDAs” value is listed as “weaker potency”.
Consider `Cc1ccc(N)c(C)c1` [2′,4′-dimethylaniline], for which the agonistic activity entry in assay [1] (wild type) is reported as “no agonist activity”.
Consider `NC[C@H](O)c1ccc(O)c(O)c1` [Noradrenaline, noradrenaline], for which the maximal effect (Emax) in assay [1] (setting [10]) was 32 ± 13.1%. In assay [1] (setting [11]), the EC50 was 10000 nM. For the same compound, the “potency (EC50) relative to the other TDAs” value in assay [1] (wild type) was “significantly weaker affinities”.
